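Exposure lasted 48 hours, with cells grown in 96-well plates and compounds tested at five concentrations. GI50: concentration for 50% inhibition of growth.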 Active and inactive are the calls of the source. Rule as the data show it: active = GI50 up to about 1.1 µM and inactive = higher. Residues, ends and D or L forms follow the SMILES beside them.
Tests used:
Assay in all cases: NCI-60 cell line screen, 48 h
786-0 = system: 786-0
A498 = system: A498
A549 = system: A549
ACHN = system: ACHN
BT-549 = system: BT-549
CAKI-1 = system: CAKI-1
CCRF-CEM = system: CCRF-CEM
COLO 205 = system: COLO 205
DU-145 = system: DU-145
EKVX = system: EKVX
HCC 2998 = system: HCC 2998
HCT-116 = system: HCT-116
HCT-15 = system: HCT-15
HL-60 = system: HL-60
HOP-62 = system: HOP-62
HOP-92 = system: HOP-92
HT-29 = system: HT-29
Hs-578T = system: Hs-578T
IGROV-1 = system: IGROV-1
K562 = system: K562
KM12 = system: KM12
LOX IMVI = system: LOX IMVI
M14 = system: M14
MCF7 = system: MCF7
MDA-MB-231 = system: MDA-MB-231
MDA-MB-435 = system: MDA-MB-435
MDA-N = system: MDA-N
MOLT-4 = system: MOLT-4
Malme-3M = system: Malme-3M
NCI-H226 = system: NCI-H226
NCI-H23 = system: NCI-H23
NCI-H460 = system: NCI-H460
NCI-H522 = system: NCI-H522
NCI/ADR-RES = system: NCI/ADR-RES
OVCAR-3 = system: OVCAR-3
OVCAR-5 = system: OVCAR-5
OVCAR-8 = system: OVCAR-8
PC-3 = system: PC-3
RPMI-8226 = system: RPMI-8226
RXF 393 = system: RXF 393
SF-268 = system: SF-268
SF-295 = system: SF-295
SF-539 = system: SF-539
SK-MEL-28 = system: SK-MEL-28
SK-MEL-5 = system: SK-MEL-5
SK-OV-3 = system: SK-OV-3
SNB-19 = system: SNB-19
SNB-75 = system: SNB-75
SR = system: SR
SW-620 = system: SW-620
TK-10 = system: TK-10
U-251 = system: U-251
UACC-257 = system: UACC-257
UACC-62 = system: UACC-62
UO-31 = system: UO-31
OVCAR-4 = system: OVCAR-4
SK-MEL-2 = system: SK-MEL-2
SN12C = system: SN12C

## O=P(O)(O)C(NCC(O)CN1CCOCC1)P(=O)(O)O (stereo not given)
786-0
  GI50: > 100 µM (inactive)
A498
  GI50: > 100 µM (inactive)
A549
  GI50: > 100 µM (inactive)
ACHN
  GI50: > 100 µM (inactive)
BT-549
  GI50: > 100 µM (inactive)
CAKI-1
  GI50: > 100 µM (inactive)
CCRF-CEM
  GI50: > 100 µM (inactive)
COLO 205
  GI50: > 100 µM (inactive)
DU-145
  GI50: > 100 µM (inactive)
EKVX
  GI50: > 100 µM (inactive)
HCC 2998
  GI50: > 100 µM (inactive)
HCT-116
  GI50: > 100 µM (inactive)
HCT-15
  GI50: > 100 µM
HL-60
  GI50: > 100 µM (inactive)
HOP-62
  GI50: > 100 µM (inactive)
HOP-92
  GI50: > 100 µM (inactive)
HT-29
  GI50: > 100 µM (inactive)
Hs-578T
  GI50: 10.2 µM (inactive)
IGROV-1
  GI50: > 100 µM (inactive)
K562
  GI50: > 100 µM (inactive)
KM12
  GI50: > 100 µM (inactive)
LOX IMVI
  GI50: > 100 µM (inactive)
M14
  GI50: > 100 µM (inactive)
MCF7
  GI50: > 100 µM (inactive)
MDA-MB-231
  GI50: > 100 µM (inactive)
MDA-MB-435
  GI50: > 100 µM (inactive)
MDA-N
  GI50: > 100 µM (inactive)
MOLT-4
  GI50: > 100 µM (inactive)
Malme-3M
  GI50: > 100 µM (inactive)
NCI-H226
  GI50: > 100 µM (inactive)
NCI-H23
  GI50: > 100 µM (inactive)
NCI-H460
  GI50: > 100 µM (inactive)
NCI-H522
  GI50: > 100 µM (inactive)
NCI/ADR-RES
  GI50: > 100 µM (inactive)
OVCAR-3
  GI50: > 100 µM (inactive)
OVCAR-5
  GI50: > 100 µM (inactive)
OVCAR-8
  GI50: > 100 µM (inactive)
PC-3
  GI50: > 100 µM (inactive)
RPMI-8226
  GI50: > 100 µM (inactive)
RXF 393
  GI50: > 100 µM (inactive)
SF-268
  GI50: > 100 µM (inactive)
SF-295
  GI50: > 100 µM (inactive)
SF-539
  GI50: > 100 µM (inactive)
SK-MEL-28
  GI50: > 100 µM (inactive)
SK-MEL-5
  GI50: > 100 µM (inactive)
SK-OV-3
  GI50: > 100 µM (inactive)
SNB-19
  GI50: > 100 µM (inactive)
SNB-75
  GI50: > 100 µM (inactive)
SR
  GI50: > 100 µM (inactive)
SW-620
  GI50: > 100 µM (inactive)
TK-10
  GI50: > 100 µM (inactive)
U-251
  GI50: > 100 µM (inactive)
UACC-257
  GI50: > 100 µM (inactive)
UACC-62
  GI50: > 100 µM (inactive)
UO-31
  GI50: > 100 µM (inactive)

## c1nc(OCC2CCCCC2)c2nc[nH]c2n1
786-0
  GI50: > 100 µM (inactive)
A549
  GI50: 66.4 µM (inactive)
ACHN
  GI50: 10.1 µM (inactive)
BT-549
  GI50: > 100 µM (inactive)
CAKI-1
  GI50: > 100 µM (inactive)
CCRF-CEM
  GI50: > 100 µM (inactive)
COLO 205
  GI50: 32 µM (inactive)
DU-145
  GI50: 73.8 µM (inactive)
EKVX
  GI50: 53 µM (inactive)
HCC 2998
  GI50: > 100 µM (inactive)
HCT-116
  GI50: 35.7 µM (inactive)
HCT-15
  GI50: 46.3 µM
HL-60
  GI50: > 100 µM (inactive)
HOP-62
  GI50: 55.7 µM (inactive)
HOP-92
  GI50: 66.7 µM (inactive)
HT-29
  GI50: 49.9 µM (inactive)
Hs-578T
  GI50: > 100 µM (inactive)
IGROV-1
  GI50: 46.5 µM (inactive)
K562
  GI50: 99.8 µM (inactive)
KM12
  GI50: 54.1 µM (inactive)
LOX IMVI
  GI50: 34.9 µM (inactive)
M14
  GI50: 59.4 µM (inactive)
MDA-MB-231
  GI50: 63.2 µM (inactive)
MDA-MB-435
  GI50: 46.7 µM (inactive)
MDA-N
  GI50: 28.2 µM (inactive)
MOLT-4
  GI50: 31.6 µM (inactive)
Malme-3M
  GI50: 70.5 µM (inactive)
NCI-H226
  GI50: 26.9 µM (inactive)
NCI-H23
  GI50: 45.3 µM (inactive)
NCI-H460
  GI50: 72.6 µM (inactive)
NCI-H522
  GI50: 44.4 µM (inactive)
NCI/ADR-RES
  GI50: 61.4 µM (inactive)
OVCAR-3
  GI50: 53.1 µM (inactive)
OVCAR-4
  GI50: > 100 µM (inactive)
OVCAR-5
  GI50: 62.7 µM (inactive)
OVCAR-8
  GI50: 47.2 µM (inactive)
PC-3
  GI50: 85.9 µM (inactive)
RPMI-8226
  GI50: 15.6 µM (inactive)
RXF 393
  GI50: 60.7 µM (inactive)
SF-268
  GI50: 44.5 µM (inactive)
SF-295
  GI50: 50.9 µM (inactive)
SF-539
  GI50: 36.1 µM (inactive)
SK-MEL-28
  GI50: > 100 µM (inactive)
SK-MEL-2
  GI50: 40.6 µM (inactive)
SK-MEL-5
  GI50: 26.1 µM (inactive)
SK-OV-3
  GI50: 43.7 µM (inactive)
SN12C
  GI50: 57.8 µM (inactive)
SNB-19
  GI50: > 100 µM (inactive)
SNB-75
  GI50: 51.4 µM (inactive)
SW-620
  GI50: 59.6 µM (inactive)
TK-10
  GI50: > 100 µM (inactive)
U-251
  GI50: 58.3 µM (inactive)
UACC-257
  GI50: 91.8 µM (inactive)
UACC-62
  GI50: 47.1 µM (inactive)
UO-31
  GI50: 42.9 µM (inactive)

## CCC(C)C(NC(=O)C(CCCCN)NC(=O)C(NC(=O)C(CCC(N)=O)NC(=O)C(N)CCCNC(=N)N)C(C)CC)C(=O)NC(Cc1c[nH]c2ccccc12)C(=O)NC(Cc1ccccc1)C(=O)NC(CCC(N)=O)C(=O)NC(CC(N)=O)C(=O)NC(CCCNC(=N)N)C(=O)NC(CCCNC(=N)N)C(=O)NC(CCSC)C(=O)NC(CCCCN)C(=O)NC(Cc1c[nH]c2ccccc12)C(=O)NC(CCCCN)C(=O)NC(CCCCN)C(=O)N1CCCC1C(=O)NC(C)C(=O)NC(CCCCN)C(=O)NC(CCCNC(=N)N)C(=O)NC(CCCCN)C(=O)NC(CC(C)C)C(=O)NC(Cc1ccccc1)C(=O)NCC(=O)O (stereo not given) (H-RQIKIWFQNRRMKWKKPAKRKLFG-OH; configuration not given here)
786-0
  GI50: 17.5 µM (inactive)
A549
  GI50: > 25 µM (inactive)
ACHN
  GI50: > 25 µM (inactive)
BT-549
  GI50: > 25 µM (inactive)
CAKI-1
  GI50: > 25 µM (inactive)
CCRF-CEM
  GI50: 12.4 µM (inactive)
COLO 205
  GI50: > 25 µM (inactive)
DU-145
  GI50: > 25 µM (inactive)
EKVX
  GI50: > 25 µM (inactive)
HCC 2998
  GI50: > 25 µM (inactive)
HCT-116
  GI50: 16.3 µM (inactive)
HCT-15
  GI50: > 25 µM
HL-60
  GI50: 6.93 µM (inactive)
HOP-62
  GI50: > 25 µM (inactive)
HOP-92
  GI50: 9.64 µM (inactive)
HT-29
  GI50: > 25 µM (inactive)
Hs-578T
  GI50: 21.1 µM (inactive)
IGROV-1
  GI50: > 25 µM (inactive)
K562
  GI50: > 25 µM (inactive)
KM12
  GI50: 9.31 µM (inactive)
LOX IMVI
  GI50: > 25 µM (inactive)
M14
  GI50: 12.1 µM (inactive)
MCF7
  GI50: > 25 µM (inactive)
MDA-MB-231
  GI50: 10.5 µM (inactive)
MDA-MB-435
  GI50: 16 µM (inactive)
MDA-N
  GI50: > 25 µM (inactive)
MOLT-4
  GI50: > 25 µM (inactive)
Malme-3M
  GI50: 6.75 µM (inactive)
NCI-H226
  GI50: > 25 µM (inactive)
NCI-H23
  GI50: > 25 µM (inactive)
NCI-H460
  GI50: 24.7 µM (inactive)
NCI-H522
  GI50: > 25 µM (inactive)
NCI/ADR-RES
  GI50: > 25 µM (inactive)
OVCAR-3
  GI50: > 25 µM (inactive)
OVCAR-4
  GI50: > 25 µM (inactive)
OVCAR-5
  GI50: > 25 µM (inactive)
OVCAR-8
  GI50: > 25 µM (inactive)
PC-3
  GI50: > 25 µM (inactive)
RPMI-8226
  GI50: 5.93 µM (inactive)
RXF 393
  GI50: > 25 µM (inactive)
SF-268
  GI50: 15.9 µM (inactive)
SF-295
  GI50: > 25 µM (inactive)
SK-MEL-28
  GI50: > 25 µM (inactive)
SK-MEL-2
  GI50: > 25 µM (inactive)
SK-MEL-5
  GI50: 16.5 µM (inactive)
SK-OV-3
  GI50: > 25 µM (inactive)
SN12C
  GI50: > 25 µM (inactive)
SNB-19
  GI50: > 25 µM (inactive)
SNB-75
  GI50: > 25 µM (inactive)
SR
  GI50: > 25 µM (inactive)
SW-620
  GI50: > 25 µM (inactive)
TK-10
  GI50: > 25 µM (inactive)
U-251
  GI50: 17 µM (inactive)
UACC-257
  GI50: 21.9 µM (inactive)
UO-31
  GI50: > 25 µM (inactive)

Source: ChEMBL document CHEMBL1201862, “PubChem BioAssay data set” (2004)
